The subject of one assay is HCT116 WT cells. The assay is described as follows: HCT116 WT (parent) cell line proliferation / cell viability (CellTiter-Glo, 6 days). Format: cell-based. The conditions noted are these: Homo sapiens, HCT-116, 144 h, 6 days treatment. The gist of the method: (§1)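 Viability read by CellTiter-Glo luminescence after 6 days of compound treatment of HCT116 WT and MTAP-null cells (RPMI 1640, 10% FBS). Dose series were 1:3 steps from 1 or 10 μM (8–9 points), or 1:2 steps from 10 or 50 μM (22 points). IC50 from 4-parameter logistic or fixed-slope sigmoidal fit.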

In the next assay the test system is HCT116 MTAP null cells. Put plainly: HCT116 MTAP null cell line proliferation / cell viability (CellTiter-Glo, 6 days). Format: cell-based. As to conditions: 144 h; HCT116 MTAP null cells, 6 days treatment, CellTiter-Glo cell viability; read-out: HCT-116 MTAP null IC50. The essentials: as §1

With `CN(C(=O)c1cc2c(cc1F)nc(N)c1cnn(C)c12)[C@@H]1COCc2cc(OC(F)(F)F)ccc21` (single isomer, unassigned) [Example 430], the IC50 is 75 nM in the assay on HCT116 WT cells and 3 nM in the assay with HCT116 MTAP null cells.

With `CN(C(=O)c1cc2c(cc1F)nc(N)c1cnn(C)c12)[C@H]1COCc2cc(OC(F)(F)F)ccc21` (single isomer, unassigned) [Example 431], the figures for the IC50 in the assay with HCT116 WT cells and with HCT116 MTAP null cells were 5880 nM and 305 nM, respectively.

For the compound `CN(C(=O)c1cc2c(cc1F)nc(N)c1cnn(C)c12)[C@@H]1COCc2c1ccc(C(F)(F)F)c2F` (single isomer, unassigned) [Example 432], the IC50 in the assay on HCT116 WT cells stood at 127 nM; in the assay with HCT116 MTAP null cells, 9 nM.

Take `CN(C(=O)c1cc2c(cc1F)nc(N)c1cnn(C)c12)[C@H]1COCc2c1ccc(C(F)(F)F)c2F` (single isomer, unassigned) [Example 433]: the 50% inhibitory concentration (IC50) with HCT116 WT cells is 3280 nM; in the assay on HCT116 MTAP null cells, 418 nM.

Consider `CN(C(=O)c1cc2c(cc1F)nc(N)c1cnn(C)c12)[C@@H]1CC(C)(C)Cc2nc(C(F)(F)F)ccc21` (single isomer, unassigned) [Example 434], for which the results for the IC50 with HCT116 WT cells and in the assay with HCT116 MTAP null cells were 11500 nM and 223 nM, respectively.

Turning to `CN(C(=O)c1cc2c(cc1F)nc(N)c1cnn(C)c12)[C@H]1CC(C)(C)Cc2nc(C(F)(F)F)ccc21` (single isomer, unassigned) [Example 435], the 50% inhibitory concentration (IC50) in the assay with HCT116 WT cells turned out to be 13400 nM; in the assay on HCT116 MTAP null cells, 320 nM.

As to `Cc1cc2nc(N)c3cnn(C)c3c2cc1C(=O)N(C)[C@@H]1COCc2c1ccc(C(F)(F)F)c2F` (single isomer, unassigned) [Example 436], the IC50 with HCT116 WT cells worked out at 23 nM; in the assay with HCT116 MTAP null cells, 2 nM.

Turning to `Cc1cc2nc(N)c3cnn(C)c3c2cc1C(=O)N(C)[C@H]1COCc2c1ccc(C(F)(F)F)c2F` (single isomer, unassigned) [Example 437], the half-maximal inhibitory concentration (IC50) worked out at 687 nM in the assay on HCT116 WT cells and 41 nM in the assay with HCT116 MTAP null cells.

With `CCOc1ccc2c(n1)COC[C@H]2N(C)C(=O)c1ccc2nc(N)c3c(cnn3C)c2c1` (single isomer, unassigned) [Example 438], the IC50 with HCT116 WT cells worked out at 25200 nM; in the assay on HCT116 MTAP null cells it was 193 nM.

Regarding `CN(C(=O)c1cc2c(cc1F)nc(N)c1c2cnn1C)[C@@H]1CCCc2nc(C(F)(F)F)ccc21` (single isomer, unassigned) [Example 439], the half-maximal inhibitory concentration (IC50) was determined as 9460 nM in the assay with HCT116 WT cells and 192 nM in the assay with HCT116 MTAP null cells.

For the compound `CN(C(=O)c1cc2c(cc1F)nc(N)c1c2cnn1C)[C@@H]1COCc2c1ccc(C(F)(F)F)c2F` (single isomer, unassigned) [Example 440], the IC50 was found to be 3010 nM in the assay with HCT116 WT cells and 48 nM with HCT116 MTAP null cells.

On to `CN(C(=O)c1ccc2nc(N)c3cnn(C)c3c2c1)[C@@H]1CCOCc2nc(C(F)(F)F)ccc21` (single isomer, unassigned) [Example 441], for which the IC50 in the assay with HCT116 WT cells is 9310 nM; in the assay on HCT116 MTAP null cells, 181 nM.

Take `CN(C(=O)c1cc2c3c(c(N)nc2cn1)COC3)[C@@H]1COc2cc(C(F)(F)F)ccc21` (single isomer, unassigned) [Example 522]: the figures for the half-inhibitory concentration (IC50) in the assay on HCT116 WT cells and in the assay with HCT116 MTAP null cells were 2470 nM and 63 nM, respectively.

For the compound `CN(C(=O)c1cc2c3c(c(N)nc2cn1)COC3)[C@H]1COc2cc(C(F)(F)F)ccc21` (single isomer, unassigned) [Example 523], the figures for the IC50 with HCT116 WT cells and with HCT116 MTAP null cells were 10000 nM and 2720 nM, respectively.

Take `COc1ccc2c(n1)OC[C@H]2N(C)C(=O)c1ccc2nc(N)c3c(c2c1)COC3` (single isomer, unassigned) [Example 524]: the IC50 in the assay on HCT116 WT cells was found to be 24500 nM; in the assay with HCT116 MTAP null cells it was 396 nM.

As for `COc1ccc2c(n1)OC[C@@H]2N(C)C(=O)c1ccc2nc(N)c3c(c2c1)COC3` (single isomer, unassigned) [Example 525], the half-maximal inhibitory concentration (IC50) with HCT116 WT cells came out at 50000 nM; in the assay on HCT116 MTAP null cells, 4160 nM.

Regarding `CN(C(=O)c1ccc2nc(N)c3c(c2c1)COC3)[C@@H]1COc2cc(OC(F)F)ccc21` (single isomer, unassigned) [Example 526], the IC50 in the assay with HCT116 WT cells is 3820 nM; in the assay on HCT116 MTAP null cells, 52 nM.

In the case of `CN(C(=O)c1ccc2nc(N)c3c(c2c1)COC3)[C@@H]1CCc2nc(C(F)(F)F)ccc21` (single isomer, unassigned) [Example 527], the values for the half-maximal inhibitory concentration (IC50) in the assay with HCT116 WT cells and in the assay with HCT116 MTAP null cells were 7520 nM and 143 nM, respectively.

For the compound `CN(C(=O)c1ccc2nc(N)c3c(c2c1)COC3)[C@H]1CCc2nc(C(F)(F)F)ccc21` (single isomer, unassigned) [Example 528], the IC50 in the assay with HCT116 WT cells stood at 50000 nM; with HCT116 MTAP null cells, 5280 nM.

Regarding `CN(C(=O)c1ccc2nc(N)c3c(c2c1)COC3)C1COc2nc(C(F)(F)F)ccc21` (single isomer, unassigned) [Example 529], the 50% inhibitory concentration (IC50) in the assay with HCT116 WT cells amounted to 5590 nM; with HCT116 MTAP null cells, 89 nM.

Turning to `CN(C(=O)c1ccc2nc(N)c3c(c2c1)COC3)[C@H]1COc2nc(C(F)(F)F)ccc21` (single isomer, unassigned) [Example 530], the values for the IC50 in the assay on HCT116 WT cells and in the assay with HCT116 MTAP null cells were 40200 nM and 2510 nM, respectively.

With `CN(C(=O)c1ccc2nc(N)c3c(c2c1)COC3)[C@@H]1CCc2cc(OC(F)(F)F)ccc21` (single isomer, unassigned) [Example 531], the half-maximal inhibitory concentration (IC50) in the assay on HCT116 WT cells was determined as 4860 nM; with HCT116 MTAP null cells, 113 nM.

With `CN(C(=O)c1ccc2nc(N)c3c(c2c1)COC3)[C@H]1CCc2cc(OC(F)(F)F)ccc21` (single isomer, unassigned) [Example 532], the concentration for half-maximal inhibition (IC50) with HCT116 WT cells was determined as 6680 nM; in the assay with HCT116 MTAP null cells, 2510 nM.

Regarding `CCN(C(=O)c1ccc2nc(N)c3c(c2c1)COC3)[C@@H]1COc2cc(C(F)(F)F)ccc21` (single isomer, unassigned) [Example 533], the IC50 in the assay with HCT116 WT cells is 816 nM; in the assay on HCT116 MTAP null cells, 17 nM.

For `CCN(C(=O)c1ccc2nc(N)c3c(c2c1)COC3)[C@H]1COc2cc(C(F)(F)F)ccc21` (single isomer, unassigned) [Example 534], the half-maximal inhibitory concentration (IC50) amounted to 23900 nM in the assay on HCT116 WT cells and 1730 nM in the assay with HCT116 MTAP null cells.

As for `Nc1nc2ccc(C(=O)N(CC3CC3)[C@@H]3COc4cc(C(F)(F)F)ccc43)cc2c2c1COC2` (single isomer, unassigned) [Example 535], the IC50 was 198 nM in the assay on HCT116 WT cells and 7 nM with HCT116 MTAP null cells.

With `Nc1nc2ccc(C(=O)N(CC3CC3)[C@H]3COc4cc(C(F)(F)F)ccc43)cc2c2c1COC2` (single isomer, unassigned) [Example 536], the half-maximal inhibitory concentration (IC50) amounted to 11700 nM in the assay on HCT116 WT cells and 728 nM in the assay on HCT116 MTAP null cells.

`C[C@H]1OCc2c1c(N)nc1ccc(C(=O)N(C)[C@@H]3COc4cc(C(F)(F)F)ccc43)cc21` (single isomer, unassigned) [Example 537]: the half-inhibitory concentration (IC50) worked out at 881 nM in the assay with HCT116 WT cells and 21 nM in the assay with HCT116 MTAP null cells.

Consider `C[C@H]1OCc2c1c(N)nc1ccc(C(=O)N(C)[C@H]3COc4cc(C(F)(F)F)ccc43)cc21` (single isomer, unassigned) [Example 538], for which the IC50 with HCT116 WT cells is 23600 nM; in the assay with HCT116 MTAP null cells, 1840 nM.

For the compound `CCN(C(=O)c1ccc2nc(N)c3c(c2c1)CO[C@@H]3C)[C@@H]1COc2cc(C(F)(F)F)ccc21` (single isomer, unassigned) [Example 539], the half-maximal inhibitory concentration (IC50) in the assay on HCT116 WT cells was 663 nM; in the assay with HCT116 MTAP null cells it was 15 nM.

As for `CCN(C(=O)c1ccc2nc(N)c3c(c2c1)CO[C@@H]3C)[C@H]1COc2cc(C(F)(F)F)ccc21` (single isomer, unassigned) [Example 540], the IC50 with HCT116 WT cells is 18600 nM; in the assay with HCT116 MTAP null cells it was 722 nM.

With `CN(C(=O)c1cc2c3c(c(N)nc2cn1)COC3)[C@@H]1COc2cc(C#N)ccc21` (single isomer, unassigned) [Example 541], the IC50 in the assay with HCT116 WT cells came to 3800 nM; in the assay on HCT116 MTAP null cells it was 77 nM.

For the compound `CN(C(=O)c1cc2c3c(c(N)nc2cn1)COC3)[C@@H]1COc2cc(C(F)(F)F)ncc21` (single isomer, unassigned) [Example 542], the values for the half-inhibitory concentration (IC50) with HCT116 WT cells and in the assay on HCT116 MTAP null cells were 46000 nM and 785 nM, respectively.

On to `CCN(C(=O)c1cc2c3c(c(N)nc2cn1)COC3)[C@@H]1COc2cc(C(F)(F)F)ccc21` (single isomer, unassigned) [Example 543], for which the figures for the concentration for half-maximal inhibition (IC50) in the assay with HCT116 WT cells and in the assay with HCT116 MTAP null cells were 1460 nM and 49 nM, respectively.

`CCN(C(=O)c1cc2c3c(c(N)nc2cn1)COC3)[C@H]1COc2cc(C(F)(F)F)ccc21` (single isomer, unassigned) [Example 544]: the values for the IC50 in the assay with HCT116 WT cells and with HCT116 MTAP null cells were 15200 nM and 5230 nM, respectively.

For the compound `CN(C(=O)c1cc2c3c(c(N)nc2cn1)COC3)[C@@H]1COc2cc(C(F)(F)F)cc(F)c21` (single isomer, unassigned) [Example 545], the IC50 in the assay with HCT116 WT cells worked out at 3250 nM; in the assay on HCT116 MTAP null cells it was 68 nM.

For the compound `CN(C(=O)c1cc2c3c(c(N)nc2cn1)COC3)[C@H]1COc2cc(C(F)(F)F)cc(F)c21` (single isomer, unassigned) [Example 546], the IC50 with HCT116 WT cells was found to be 30700 nM; in the assay on HCT116 MTAP null cells, 9590 nM.

In the case of `Nc1nc2cnc(C(=O)N(C3CC3)[C@@H]3COc4cc(C(F)(F)F)ccc43)cc2c2c1COC2` (single isomer, unassigned) [Example 547], the IC50 in the assay on HCT116 WT cells is 2460 nM; with HCT116 MTAP null cells, 122 nM.

In the case of `CN(C(=O)c1cc2c3c(c(N)nc2cn1)COC3)[C@@H]1COc2cc(Cl)c(C(F)(F)F)cc21` (single isomer, unassigned) [Example 548], the results for the IC50 in the assay on HCT116 WT cells and with HCT116 MTAP null cells were 3060 nM and 58 nM, respectively.

As to `CN(C(=O)c1cc2c3c(c(N)nc2cc1F)COC3)[C@@H]1COc2cc(C#N)ccc21` (single isomer, unassigned) [Example 551], the values for the IC50 in the assay on HCT116 WT cells and in the assay with HCT116 MTAP null cells were 1340 nM and 17 nM, respectively.

On to `CN(C(=O)c1cc2c3c(c(N)nc2cc1F)COC3)[C@@H]1COc2cc(C(F)(F)F)ccc21` (single isomer, unassigned) [Example 552], for which the IC50 in the assay on HCT116 WT cells came to 1220 nM; in the assay with HCT116 MTAP null cells, 34 nM.

Turning to `CN(C(=O)c1cc2c3c(c(N)nc2cc1F)COC3)[C@H]1COc2cc(C(F)(F)F)ccc21` (single isomer, unassigned) [Example 553], the IC50 in the assay on HCT116 WT cells was found to be 11400 nM; in the assay with HCT116 MTAP null cells, 1380 nM.
